The values below come from patent publication US20080076751A1, “Azetidinone Derivatives and Methods of Use Thereof” (priority 2006, published 2008).

In one experiment the target is T1, human NPC1L1 (Homo sapiens, UniProt Q9UHC9).
T1 construct: expressed in transfected cells; host or cells: HEK-293 (geneticin selection)
T1 sequence (Q9UHC9 22-1359): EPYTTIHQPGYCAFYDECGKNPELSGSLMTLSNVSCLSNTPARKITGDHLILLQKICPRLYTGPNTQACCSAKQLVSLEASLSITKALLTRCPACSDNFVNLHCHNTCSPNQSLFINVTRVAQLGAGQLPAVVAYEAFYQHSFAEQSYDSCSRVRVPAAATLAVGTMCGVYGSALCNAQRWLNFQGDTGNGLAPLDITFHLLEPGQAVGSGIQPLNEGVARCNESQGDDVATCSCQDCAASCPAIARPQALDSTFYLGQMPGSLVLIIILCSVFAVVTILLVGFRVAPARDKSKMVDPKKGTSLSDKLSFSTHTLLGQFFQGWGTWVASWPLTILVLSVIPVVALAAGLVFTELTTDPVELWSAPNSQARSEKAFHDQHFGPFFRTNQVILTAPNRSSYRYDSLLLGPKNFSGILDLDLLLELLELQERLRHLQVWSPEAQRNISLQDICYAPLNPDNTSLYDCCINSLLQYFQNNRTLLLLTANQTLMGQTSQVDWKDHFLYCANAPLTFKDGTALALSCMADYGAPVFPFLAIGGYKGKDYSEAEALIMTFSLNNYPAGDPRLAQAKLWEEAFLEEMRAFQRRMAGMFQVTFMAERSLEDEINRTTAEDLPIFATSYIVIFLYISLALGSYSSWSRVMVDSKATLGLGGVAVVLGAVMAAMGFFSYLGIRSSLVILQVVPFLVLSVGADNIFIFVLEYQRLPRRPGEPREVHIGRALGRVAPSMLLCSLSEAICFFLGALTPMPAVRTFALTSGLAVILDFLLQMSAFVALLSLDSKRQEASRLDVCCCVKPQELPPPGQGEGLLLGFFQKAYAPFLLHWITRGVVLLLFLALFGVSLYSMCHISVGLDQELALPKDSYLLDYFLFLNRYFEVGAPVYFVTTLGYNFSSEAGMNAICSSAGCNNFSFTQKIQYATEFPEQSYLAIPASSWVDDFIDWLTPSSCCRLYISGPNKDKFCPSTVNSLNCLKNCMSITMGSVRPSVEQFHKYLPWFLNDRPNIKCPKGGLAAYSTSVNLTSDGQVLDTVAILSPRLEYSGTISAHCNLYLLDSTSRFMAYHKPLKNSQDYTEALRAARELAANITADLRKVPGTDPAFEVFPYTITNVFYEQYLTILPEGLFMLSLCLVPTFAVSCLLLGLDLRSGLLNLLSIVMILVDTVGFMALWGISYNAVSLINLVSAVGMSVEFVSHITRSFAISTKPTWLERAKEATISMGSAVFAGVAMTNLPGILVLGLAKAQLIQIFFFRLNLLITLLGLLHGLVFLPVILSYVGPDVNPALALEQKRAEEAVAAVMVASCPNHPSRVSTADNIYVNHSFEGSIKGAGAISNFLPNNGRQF
Nature of the experiment: NPC1L1 binding assay (BODIPY-labeled glucuronidated ezetimibe competition), human. As to conditions: HEK-293 cells expressing human NPC1L1, 4 hours at 37° C. As to the method: HEK-293 cells expressing human NPC1L1 were plated into 384-well black/clear plates (BD Biosciences, Bedford Mass.) for binding experiments the following day. Cell growth media (DMEM, 10% fetal calf serum, 1 mg/mL geneticin, 100 Units/mL penicillin) was aspirated. Cell growth media ([…]) containing 250 nM BODIPY-labeled glucuronidated ezetimibe was added to each well. Cell growth media ([…]) containing the indicated concentration of compound was then added to the wells. Unlabeled glucuronidated ezetimibe ([…]) was used to determine nonspecific binding. The binding reaction was allowed to proceed for 4 hours at 37° C. Subsequently the cell growth media was aspirated and the cells washed once with PBS. The remaining fluorescent labeled glucuronidated ezetimibe bound to the cells was quantified using a FlexStation plate reader (Molecular Devices, Sunnyvale Calif.) to measure fluorescence intensity. Ki values were determined from competition binding curves (n=4 for each point) using Prism and Activity Base software.

The target of the next experiment is NPC1L1 (Rattus norvegicus, UniProt Q6T3U3). Nature of the experiment: NPC1L1 binding assay (BODIPY-labeled glucuronidated ezetimibe competition), rat.

The structures appear in SMILES notation. pKi: −log10 of the molar value.

As for `O=C(Nc1c(Cl)cccc1Cl)N1CCC2(CC1)C(=O)N(c1ccccc1)C2c1ccccc1` (single isomer, unassigned) [drawing 666], the negative logarithm of the Ki (pKi) (usually the Ki on a negative log10 scale, so that one unit is a factor of ten) was 5.80 on human NPC1L1 and 6.11 at NPC1L1.

Turning to `O=C(Nc1c(Cl)cccc1Cl)N1CCC2(CC1)C(=O)N(c1ccccc1)C2c1ccccc1` (single isomer, unassigned) [drawing 667], the pKi is 4.75 at human NPC1L1 and 4.74 at NPC1L1.
